# Test results published in US8999942B2, “Polyol modified aminoglycoside-lipid conjugates” (University of Manitoba, priority 2010, dated 2015).
# How the values were obtained:
# [1] = test system: Streptococcus pneumoniae ATCC 49619; assay: MIC, broth macrodilution (CLSI), S. pneumoniae ATCC 49619; assay type: cell-based
# Protocol: (§1) All compounds were tested against American Type Culture Collection (ATCC) reference strains as well as clinical isolates from the Canadian Intensive Care Unit (CAN-ICU) study (Zhanel, et al., 2008). […] Antibacterial activity against Gram-positive and Gram-negative microorganisms was performed via broth macrodilution tests using CLSI methodology (Clinical and Laboratory Standards Institute, 2006). The minimum inhibitory concentration (MIC) in μg/mL of the aminoglycoside-derived amphiphilic polycarbamates and polyethers were determined using established methods (Clinical and Laboratory Standards Institute, 2006) and are shown in Tables 1 and 2, respectively.
# [2] = test system: Stenotrophomonas maltophilia (CAN-ICU 62585); assay: MIC, broth macrodilution (CLSI), S. maltophilia; assay type: cell-based; settings: S. maltophilia, footnote CAN-ICU 62584
# Protocol: as §1
# [3] = test system: methicillin-resistant Staphylococcus aureus (MRSA) ATCC 33592; assay: MIC, broth macrodilution (CLSI), MRSA ATCC 33592; assay type: cell-based; settings: MRSA, methicillin-resistant S. aureus ATCC 33592
# Protocol: as §1
# [4] = test system: E. coli (Amikacin MIC 32) CAN-ICU 63074; assay: MIC, broth macrodilution (CLSI), E. coli CAN-ICU 63074; assay type: cell-based
# Protocol: as §1
# [5] = test system: Pseudomonas aeruginosa ATCC 27853; assay: MIC, broth macrodilution (CLSI), P. aeruginosa ATCC 27853; assay type: cell-based
# Protocol: as §1
# S. pneumoniae ATCC 13883 = assay: MIC, broth macrodilution (CLSI), S. pneumoniae ATCC 13883; assay type: cell-based
# Protocol: as §1
# [6] = test system: methicillin-resistant Staphylococcus epidermidis (MRSE) CAN-ICU 61589; assay: MIC, broth macrodilution (CLSI), MRSE; assay type: cell-based; settings: methicillin-resistant S. epidermidis, footnote (ATCC 14990)
# Protocol: as §1
# [7] = test system: S. epidermidis ATCC 14990; assay: MIC, broth macrodilution (CLSI), S. epidermidis; assay type: cell-based, Staphylococcus epidermidis; settings: for Minimal Inhibitory Concentration (MIC): footnote ATCC 1490
# Protocol: as §1
# E. coli ATCC 25922 = assay: MIC, broth macrodilution (CLSI), E. coli ATCC 25922; assay type: cell-based
# Protocol: as §1
# [8] = test system: Gram-positive and Gram-negative strains tested; assay: Antibacterial activity, strains tested; assay type: cell-based
# Protocol: as §1
# S. aureus ATCC 29213 = assay: MIC, broth macrodilution (CLSI), S. aureus ATCC 29213; assay type: cell-based, Staphylococcus aureus
# Protocol: as §1
# [9] = test system: Acinetobacter baumanni (CAN-ICU 63169); assay: MIC, broth macrodilution (CLSI), A. baumannii; assay type: cell-based; settings: A. baumannii CAN-ICU 63169
# Protocol: as §1
# [10] = test system: E. coli (Gentamicin-resistant) CAN-ICU 61714; assay: MIC, broth macrodilution (CLSI), gentamicin-resistant E. coli; assay type: cell-based; settings: for Minimal Inhibitory Concentration (MIC): footnote ATCC 6174 (gentamicin resistant)
# Protocol: as §1
# [11] = test system: P. aeruginosa (Gent-R) CAN-ICU 62308; assay: MIC, broth macrodilution (CLSI), P. aeruginosa CAN-ICU 62308; assay type: cell-based, Pseudomonas aeruginosa
# Protocol: as §1
Compound,Minimal Inhibitory Concentration (MIC) [1],Minimal Inhibitory Concentration (MIC) [2],Minimal Inhibitory Concentration (MIC) [3],Minimal Inhibitory Concentration (MIC) [4],Minimal Inhibitory Concentration (MIC) [5],Minimal Inhibitory Concentration (MIC) (S. pneumoniae ATCC 13883),Minimal Inhibitory Concentration (MIC) [6],Minimal Inhibitory Concentration (MIC) [7],Minimal Inhibitory Concentration (MIC) (E. coli ATCC 25922),Minimal Inhibitory Concentration (MIC) (S. aureus ATCC 29213),Minimal Inhibitory Concentration (MIC) [9],Minimal Inhibitory Concentration (MIC) [10],Minimal Inhibitory Concentration (MIC) [11],other results
COCC1OC(OC2C(N)CC(N)C(OC3OC(CN)C(OC)C(OC)C3OC)C2OC)C(OC)C(N)C1OC.O=C(O)C(F)(F)F.O=C(O)C(F)(F)F.O=C(O)C(F)(F)F.O=C(O)C(F)(F)F (stereo not drawn) [Compound 17],>256 µg/mL,>256 µg/mL,>256 µg/mL,>256 µg/mL,>256 µg/mL,>256 µg/mL,>256 µg/mL,256 µg/mL,>256 µg/mL,>256 µg/mL,>256 µg/mL,>256 µg/mL,>256 µg/mL,antibacterial activity (in words) [8]: inactivity
COCC1OC(OC2C(NC(=O)C(CCN)OC)CC(N)C(OC3OC(CN)C(OC)C(OC)C3OC)C2OC)C(OC)C(N)C1OC.O=C(O)C(F)(F)F.O=C(O)C(F)(F)F.O=C(O)C(F)(F)F.O=C(O)C(F)(F)F (stereo not drawn) [Compound 20],>256 µg/mL,>256 µg/mL,>256 µg/mL,>256 µg/mL,>256 µg/mL,>256 µg/mL,>256 µg/mL,>256 µg/mL,>256 µg/mL,>256 µg/mL,>256 µg/mL,>256 µg/mL,>256 µg/mL,antibacterial activity (in words) [8]: inactivity
NCCC(OC(=O)Nc1ccccc1)C(=O)NC1CC(N)C(OC2OC(CN)C(OC(=O)Nc3ccccc3)C(OC(=O)Nc3ccccc3)C2OC(=O)Nc2ccccc2)C(OC(=O)Nc2ccccc2)C1OC1OC(COC(=O)Nc2ccccc2)C(OC(=O)Nc2ccccc2)C(N)C1OC(=O)Nc1ccccc1.O=C(O)C(F)(F)F.O=C(O)C(F)(F)F.O=C(O)C(F)(F)F.O=C(O)C(F)(F)F (stereo not drawn) [Compound 8],32 µg/mL,128 µg/mL,16 µg/mL,256 µg/mL,>256 µg/mL,256 µg/mL,2 µg/mL,2 µg/mL,256 µg/mL,8 µg/mL,256 µg/mL,256 µg/mL,256 µg/mL,–
"NCC[C@H](O)C(=O)N[C@@H]1C[C@H](N)[C@@H](O[C@H]2O[C@H](CN)[C@@H](O)[C@H](O)[C@H]2O)[C@H](O)[C@H]1O[C@H]1O[C@H](CO)[C@@H](O)[C@H](N)[C@H]1O [Amikacin, reference compound]",–,–,–,–,–,–,–,–,–,–,–,–,–,"MIC ([1]; Streptococcus pneumoniae, ATCC49619, read-out: Minimal Inhibitory Concentration (MIC)): 8 µg/mL; MIC ([2]; Stenotrophomonas maltophilia, read-out: Minimal Inhibitory Concentration (MIC)): > 512 µg/mL; MIC ([3]; Staphylococcus aureus, read-out: Minimal Inhibitory Concentration (MIC)): 8 µg/mL; MIC ([4]; Escherichia coli, read-out: Minimal Inhibitory Concentration (MIC)): 32 µg/mL; MIC ([5]; Pseudomonas aeruginosa, ATCC27853, read-out: Minimal Inhibitory Concentration (MIC)): 4 µg/mL; MIC (S. pneumoniae ATCC 13883; Streptococcus pneumoniae, ATCC13883, read-out: Minimal Inhibitory Concentration (MIC)): 0.5 µg/mL; MIC ([6]; Staphylococcus epidermidis, ATCC 14990 / MRSE, read-out: Minimal Inhibitory Concentration (MIC)): 2 µg/mL; MIC ([7]; Staphylococcus epidermidis, ATCC 1490 / ATCC 14990, footnote ATCC 1490, read-out: Minimal Inhibitory Concentration (MIC)): 1 µg/mL; MIC (E. coli ATCC 25922; Escherichia coli, ATCC25922, read-out: Minimal Inhibitory Concentration (MIC)): 4 µg/mL; MIC (S. aureus ATCC 29213; Staphylococcus aureus, ATCC29213, read-out: Minimal Inhibitory Concentration (MIC)): 4 µg/mL; MIC ([9]; read-out: Minimal Inhibitory Concentration (MIC)): 128 µg/mL; MIC ([10]; Escherichia coli, ATCC6174, footnote ATCC 6174 (gentamicin resistant), read-out: Minimal Inhibitory Concentration (MIC)): 2 µg/mL; MIC ([11]; Pseudomonas aeruginosa, read-out: Minimal Inhibitory Concentration (MIC)): 128 µg/mL"
NCCC(OCc1ccccc1)C(=O)NC1CC(N)C(OC2OC(CN)C(OCc3ccccc3)C(OCc3ccccc3)C2OCc2ccccc2)C(OCc2ccccc2)C1OC1OC(COCc2ccccc2)C(OCc2ccccc2)C(N)C1OCc1ccccc1.O=C(O)C(F)(F)F.O=C(O)C(F)(F)F.O=C(O)C(F)(F)F.O=C(O)C(F)(F)F (stereo not drawn) [Compound 18],32 µg/mL,32 µg/mL,4 µg/mL,16 µg/mL,128 µg/mL,16 µg/mL,1 µg/mL,1 µg/mL,16 µg/mL,4 µg/mL,32 µg/mL,16 µg/mL,64 µg/mL,–
CCCCCCNC(=O)OCC1OC(OC2C(OC(=O)NCCCCCC)C(N)CC(N)C2OC2OC(CN)C(OC(=O)NCCCCCC)C(OC(=O)NCCCCCC)C2N)C(OC(=O)NCCCCCC)C1OC1OC(CN)C(OC(=O)NCCCCCC)C(OC(=O)NCCCCCC)C1N.O=C(O)C(F)(F)F.O=C(O)C(F)(F)F.O=C(O)C(F)(F)F.O=C(O)C(F)(F)F.O=C(O)C(F)(F)F.O=C(O)C(F)(F)F (stereo not drawn) [Compound 3],8 µg/mL,>256 µg/mL,256 µg/mL,32 µg/mL,>256 µg/mL,4 µg/mL,2 µg/mL,1 µg/mL,8 µg/mL,2 µg/mL,>256 µg/mL,8 µg/mL,256 µg/mL,–
NCC1OC(OC2C(N)CC(N)C(OC3OC(COC(=O)Nc4ccccc4)C(OC(=O)Nc4ccccc4)C(N)C3OC(=O)Nc3ccccc3)C2OC(=O)Nc2ccccc2)C(OC(=O)Nc2ccccc2)C(OC(=O)Nc2ccccc2)C1OC(=O)Nc1ccccc1.O=C(O)C(F)(F)F.O=C(O)C(F)(F)F.O=C(O)C(F)(F)F.O=C(O)C(F)(F)F (stereo not drawn) [Compound 5],64 µg/mL,>256 µg/mL,32 µg/mL,>256 µg/mL,>256 µg/mL,>256 µg/mL,8 µg/mL,4 µg/mL,>256 µg/mL,32 µg/mL,>256 µg/mL,>256 µg/mL,>256 µg/mL,–
